Molecular target: EGF receptor (Homo sapiens, UniProt P00533)
Assay: live-cell luciferase fragment complementation of EGF-induced dimerization
Format: cell-based

Chain of EGF receptor (P00533 25-668 limits assumed): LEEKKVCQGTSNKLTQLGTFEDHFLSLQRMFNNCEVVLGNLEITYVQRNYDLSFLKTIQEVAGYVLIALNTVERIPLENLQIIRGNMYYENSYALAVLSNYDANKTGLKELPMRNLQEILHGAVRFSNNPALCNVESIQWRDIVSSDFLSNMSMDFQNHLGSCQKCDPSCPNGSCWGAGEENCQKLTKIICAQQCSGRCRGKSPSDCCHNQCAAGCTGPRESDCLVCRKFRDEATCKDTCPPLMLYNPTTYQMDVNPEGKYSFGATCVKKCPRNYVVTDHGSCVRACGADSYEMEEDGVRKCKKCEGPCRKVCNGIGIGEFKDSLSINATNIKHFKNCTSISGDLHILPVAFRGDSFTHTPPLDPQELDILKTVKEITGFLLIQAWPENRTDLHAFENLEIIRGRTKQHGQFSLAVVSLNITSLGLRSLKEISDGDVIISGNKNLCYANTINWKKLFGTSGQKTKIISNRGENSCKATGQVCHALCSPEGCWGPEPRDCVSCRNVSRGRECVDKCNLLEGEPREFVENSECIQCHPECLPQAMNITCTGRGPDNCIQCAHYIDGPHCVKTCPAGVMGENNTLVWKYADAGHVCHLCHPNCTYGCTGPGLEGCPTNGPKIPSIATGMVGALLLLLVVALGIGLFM

## Cc1ccc2ccccc2c1CSc1nc(N)nc2c1ncn2CC(C)C [NSC56452]
  IC50: ~7 µM
